According to ChEMBL document CHEMBL4834484, “Identification of isoform/domain-selective fragments from the selection of DNA-encoded dynamic library” (Bioorg Med Chem, 2021):

Legend:
[1] = target: T1, NAD-dependent protein deacetylase sirtuin-2 (Homo sapiens, UniProt Q8IXJ6); assay: Inhibition of human recombinant SIRT2 assessed as inhibition of substrate deacetylation using Gln-Pro-Lys-Lys- (epsilon acetyl) AMC peptide as substrate in presence of NAD+ measured by fluorescence based analysis
T1 sequence (Q8IXJ6 whole entry): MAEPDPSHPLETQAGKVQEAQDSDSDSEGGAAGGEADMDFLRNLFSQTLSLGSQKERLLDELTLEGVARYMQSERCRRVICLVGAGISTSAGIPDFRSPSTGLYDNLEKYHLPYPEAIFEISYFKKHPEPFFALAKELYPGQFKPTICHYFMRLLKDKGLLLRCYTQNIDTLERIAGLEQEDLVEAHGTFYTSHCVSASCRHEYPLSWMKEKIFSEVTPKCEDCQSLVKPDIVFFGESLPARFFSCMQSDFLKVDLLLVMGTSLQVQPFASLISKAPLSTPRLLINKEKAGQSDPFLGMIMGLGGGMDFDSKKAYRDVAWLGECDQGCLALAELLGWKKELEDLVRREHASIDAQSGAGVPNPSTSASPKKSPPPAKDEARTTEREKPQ

[2] = target: T1, NAD-dependent protein deacetylase sirtuin-2; assay: Binding affinity to chip-immobilized recombinant human SIRT2 measured after 300 secs by surface plasmon resonance method
[3] = target: T2, NAD-dependent protein deacetylase sirtuin-1 (Homo sapiens, UniProt Q96EB6); assay: Binding affinity to chip-immobilized recombinant human SIRT1 measured after 300 secs by surface plasmon resonance method
T2 sequence (Q96EB6 whole entry): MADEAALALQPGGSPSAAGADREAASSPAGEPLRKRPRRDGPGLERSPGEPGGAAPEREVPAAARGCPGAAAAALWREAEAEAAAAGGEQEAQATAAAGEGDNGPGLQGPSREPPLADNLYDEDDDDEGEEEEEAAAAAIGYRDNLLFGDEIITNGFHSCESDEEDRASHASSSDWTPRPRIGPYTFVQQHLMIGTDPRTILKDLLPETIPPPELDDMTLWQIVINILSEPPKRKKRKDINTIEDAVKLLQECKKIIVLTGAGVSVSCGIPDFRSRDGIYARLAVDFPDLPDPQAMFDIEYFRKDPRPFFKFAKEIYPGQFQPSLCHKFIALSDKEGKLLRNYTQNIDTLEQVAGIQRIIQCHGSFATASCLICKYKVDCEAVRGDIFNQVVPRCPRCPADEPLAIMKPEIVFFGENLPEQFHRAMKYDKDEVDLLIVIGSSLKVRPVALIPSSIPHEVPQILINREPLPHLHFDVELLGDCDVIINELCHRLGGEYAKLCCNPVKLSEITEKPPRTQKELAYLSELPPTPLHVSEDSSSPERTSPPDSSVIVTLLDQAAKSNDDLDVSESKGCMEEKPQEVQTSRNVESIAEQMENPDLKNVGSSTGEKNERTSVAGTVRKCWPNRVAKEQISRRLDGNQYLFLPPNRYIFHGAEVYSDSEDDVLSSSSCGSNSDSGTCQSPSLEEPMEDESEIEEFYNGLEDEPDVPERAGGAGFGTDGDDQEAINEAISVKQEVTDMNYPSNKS

[4] = target: T3, NAD-dependent protein deacetylase sirtuin-3, mitochondrial (Homo sapiens, UniProt Q9NTG7); assay: Binding affinity to chip-immobilized recombinant human SIRT3 measured after 300 secs by surface plasmon resonance method
T3 sequence (Q9NTG7 whole entry): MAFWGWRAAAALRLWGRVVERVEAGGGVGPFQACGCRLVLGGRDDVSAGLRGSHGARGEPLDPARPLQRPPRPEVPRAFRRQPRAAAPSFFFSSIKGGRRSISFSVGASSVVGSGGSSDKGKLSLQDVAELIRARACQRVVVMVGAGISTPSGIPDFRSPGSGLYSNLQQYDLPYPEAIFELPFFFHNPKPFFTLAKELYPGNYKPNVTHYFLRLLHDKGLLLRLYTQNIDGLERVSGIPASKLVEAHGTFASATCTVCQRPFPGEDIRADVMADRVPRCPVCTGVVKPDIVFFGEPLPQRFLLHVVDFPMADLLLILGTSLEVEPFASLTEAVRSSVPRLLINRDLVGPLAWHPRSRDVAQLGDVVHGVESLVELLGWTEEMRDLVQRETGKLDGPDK

[5] = target: T2, NAD-dependent protein deacetylase sirtuin-1; assay: Inhibition of human recombinant SIRT1 assessed as inhibition of substrate deacetylation using Gln-Pro-Lys-Lys- (epsilon acetyl) AMC peptide as substrate in presence of NAD+ measured by fluorescence based analysis
[6] = target: T3, NAD-dependent protein deacetylase sirtuin-3, mitochondrial; assay: Inhibition of human recombinant SIRT3 assessed as inhibition of substrate deacetylation using Gln-Pro-Lys-Lys- (epsilon acetyl) AMC peptide as substrate in presence of NAD+ measured by fluorescence based analysis
[7] = target: T4, Bromodomain-containing protein 4 (Homo sapiens, UniProt O60885); assay: Displacement of SGRG-K(Ac)-GG-K(Ac)-GLG-K(Ac)-GGA-K(Ac)-RHRKVGG-K(Biotin) from Europium chelated human BRD4 bromodomain 2 (342 to 460 residues) measured after 2 hrs by TR-FRET assay
[8] = target: T4, Bromodomain-containing protein 4; assay: Displacement of SGRG-K(Ac)-GG-K(Ac)-GLG-K(Ac)-GGA-K(Ac)-RHRKVGG-K(Biotin) from Europium chelated human BRD4 bromodomain 1 (49 to 170 residues) measured after 2 hrs by TR-FRET assay
[9] = target: T5, NAD-dependent protein deacylase sirtuin-5, mitochondrial (Homo sapiens, UniProt Q9NXA8); assay: Inhibition of human recombinant SIRT5 assessed as inhibition of substrate desuccinylation using Fluor de Lys-Succinyl green peptide as substrate in presence of NAD+ measured by fluorometric assay
T5 sequence (Q9NXA8 whole entry): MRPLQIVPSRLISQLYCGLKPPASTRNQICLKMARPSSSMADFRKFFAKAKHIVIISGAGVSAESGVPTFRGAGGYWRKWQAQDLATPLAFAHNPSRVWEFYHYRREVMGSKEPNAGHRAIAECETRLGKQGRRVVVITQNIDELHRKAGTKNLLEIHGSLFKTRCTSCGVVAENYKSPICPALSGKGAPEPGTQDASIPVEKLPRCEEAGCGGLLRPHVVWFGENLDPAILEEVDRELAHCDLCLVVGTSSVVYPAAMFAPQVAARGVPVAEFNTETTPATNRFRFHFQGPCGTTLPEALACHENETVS

[10] = target: T5, NAD-dependent protein deacylase sirtuin-5, mitochondrial; assay: Binding affinity to chip-immobilized recombinant human SIRT5 measured after 300 secs by surface plasmon resonance method

IC50 [1] | Ki [1] | further results | Compound
22 µM | 6 µM | Kd [2]: 22 µM; Kd [3]: 56 µM; Kd [4]: 297 µM; Ki [5]: 35 µM; Ki [6]: 214 µM | O=C(NCCOCCOCCOCCNC(=O)c1cccc(-c2cccnc2)c1)c1cccc(-c2cccnc2)c1
303 µM | 88 µM |  | CC1COc2c(N3CCN(C)CC3)c(F)cc3c(=O)c(C(=O)NCCCNC(=O)c4cn5c6c(c(N7CCN(C)CC7)c(F)cc6c4=O)OCC5C)cn1c23 (stereo not given)
 |  | IC50 [5]: 1050 µM; Ki [5]: 645 µM | O=C1CC(C(=O)NCCOCCOCCOCCNCC(=O)C2CC3CCC2C3)c2ccccc21 (stereo not given)
186 µM | 54 µM |  | CC1COc2c(N3CCN(C)CC3)c(F)cc3c(=O)c(C(=O)NCc4ccc(CNC(=O)c5cn6c7c(c(N8CCN(C)CC8)c(F)cc7c5=O)OCC6C)cc4)cn1c23 (stereo not given)
 |  | IC50 [7]: 30 µM; IC50 [8]: 107 µM | CC1COc2c(N3CCN(C)CC3)c(F)cc3c(=O)c(C(=O)NCCCCCC(=O)N(C)CCCN4c5ccccc5CCc5ccccc54)cn1c23 (stereo not given)
 |  | IC50 [5]: 298 µM; Ki [5]: 183 µM | O=C1CC(C(=O)NCCOCCOCCNCC(=O)C2CC3CCC2C3)c2ccccc21 (stereo not given)
 |  | IC50 [9]: 183 µM; Ki [9]: 122 µM; Kd [10]: 2.47 µM | CN(CCCN1c2ccccc2CCc2ccccc21)C(=O)CCCCCNC(=O)C[C@@H](Cc1ccccc1)NC(=O)OC(C)(C)C
299 µM | 87 µM |  | COc1cc(CC(=O)NCCCNC(=O)c2cccc(-c3cccnc3)c2)cc(OC)c1OC
107 µM | 31 µM |  | CC1COc2c(N3CCN(C)CC3)c(F)cc3c(=O)c(C(=O)NCCCCCCNC(=O)CCc4nc(-c5ccncc5)no4)cn1c23 (stereo not given)
24 µM | 7 µM | Kd [2]: 24 µM | CC1COc2c(N3CCN(C)CC3)c(F)cc3c(=O)c(C(=O)NCCOCCOCCOCCNC(=O)CCc4nc(-c5ccncc5)no4)cn1c23 (stereo not given)
 |  | IC50 [7]: 153 µM; IC50 [8]: 1320 µM | CSCC(=O)N(C)CCCN1c2ccccc2CCc2ccccc21
383 µM | 111 µM |  | CC1COc2c(N3CCN(C)CC3)c(F)cc3c(=O)c(C(=O)NCCOCCOCCNC(=O)c4cn5c6c(c(N7CCN(C)CC7)c(F)cc6c4=O)OCC5C)cn1c23 (stereo not given)
186 µM | 54 µM |  | CC1COc2c(N3CCN(C)CC3)c(F)cc3c(=O)c(C(=O)NCCOCCOCCNC(=O)CCc4nc(-c5ccncc5)no4)cn1c23 (stereo not given)
93 µM | 27 µM |  | COc1cc(CC(=O)NCCOCCOCCOCCNC(=O)c2cccc(-c3cccnc3)c2)cc(OC)c1OC
25 µM | 7 µM | Kd [2]: 25 µM; Kd [4]: 392 µM; Ki [6]: 282 µM | COc1cc(CC(=O)NCc2ccc(CNC(=O)c3cccc(-c4cccnc4)c3)cc2)cc(OC)c1OC
33 µM | 9 µM | Kd [2]: 33 µM | COc1cc(CC(=O)NCCCCCCNC(=O)c2cn3c4c(c(N5CCN(C)CC5)c(F)cc4c2=O)OCC3C)cc(OC)c1OC (stereo not given)
52 µM | 15 µM |  | CC1COc2c(N3CCN(C)CC3)c(F)cc3c(=O)c(C(=O)NCCCNC(=O)CCc4nc(-c5ccncc5)no4)cn1c23 (stereo not given)
193 µM | 56 µM |  | CC1COc2c(N3CCN(C)CC3)c(F)cc3c(=O)c(C(=O)NCc4ccc(CNC(=O)CCc5nc(-c6ccncc6)no5)cc4)cn1c23 (stereo not given)

IC50 [1] | Ki [1] | further results | Compound
 |  | IC50 [7]: 41 µM; IC50 [8]: 227 µM | CC1COc2c(N3CCN(C)CC3)c(F)cc3c(=O)c(C(=O)N(C)CCCN4c5ccccc5CCc5ccccc54)cn1c23 (stereo not given)
 |  | IC50 [7]: 231 µM; IC50 [8]: 972 µM | CSCC(=O)NCCCCCC(=O)N(C)CCCN1c2ccccc2CCc2ccccc21
7 µM | 2 µM | Kd [2]: 7 µM | COc1cc(CC(=O)NCCOCCOCCOCCNC(=O)c2cn3c4c(c(N5CCN(C)CC5)c(F)cc4c2=O)OCC3C)cc(OC)c1OC (stereo not given)
91 µM | 26 µM |  | O=C(NCc1ccc(CNC(=O)c2cccc(-c3cccnc3)c2)cc1)c1cccc(-c2cccnc2)c1
 |  | IC50 [5]: 330 µM; Ki [5]: 203 µM | O=C1CC(C(=O)NCCCNCC(=O)C2CC3CCC2C3)c2ccccc21 (stereo not given)
44 µM | 13 µM | Kd [2]: 44 µM; Kd [3]: 139 µM; Kd [4]: 488 µM; Ki [5]: 85 µM; Ki [6]: 351 µM | COc1cc(CC(=O)NCCCCCCNC(=O)c2cccc(-c3cccnc3)c2)cc(OC)c1OC
 |  | IC50 [7]: 321 µM; IC50 [8]: 1130 µM | CNC(=O)c1cn2c3c(c(N4CCN(C)CC4)c(F)cc3c1=O)OCC2C (stereo not given)
 |  | IC50 [5]: 195 µM; Ki [5]: 120 µM | O=C1CC(C(=O)NCc2ccc(CNCC(=O)C3CC4CCC3C4)cc2)c2ccccc21 (stereo not given)
32 µM | 9 µM | Kd [2]: 32 µM | COc1cc(CC(=O)NCCOCCOCCNC(=O)c2cn3c4c(c(N5CCN(C)CC5)c(F)cc4c2=O)OCC3C)cc(OC)c1OC (stereo not given)
316 µM | 92 µM |  | CC1COc2c(N3CCN(C)CC3)c(F)cc3c(=O)c(C(=O)NCCOCCOCCOCCNC(=O)c4cn5c6c(c(N7CCN(C)CC7)c(F)cc6c4=O)OCC5C)cn1c23 (stereo not given)
938 µM | 272 µM | IC50 [5]: 78 µM; Ki [5]: 48 µM; IC50 [6]: 621 µM; Ki [6]: 447 µM | O=C1CC(C(=O)NCCCCCCNCC(=O)C2CC3CCC2C3)c2ccccc21 (stereo not given)
 |  | IC50 [7]: 1160 µM | CNC(=O)CSC
99 µM | 29 µM |  | O=C(NCCOCCOCCNC(=O)c1cccc(-c2cccnc2)c1)c1cccc(-c2cccnc2)c1
97 µM | 28 µM |  | COc1cc(CC(=O)NCCOCCOCCNC(=O)c2cccc(-c3cccnc3)c2)cc(OC)c1OC
39 µM | 12 µM | Kd [2]: 40 µM; Kd [3]: 118 µM; Ki [5]: 73 µM | O=C(NCCCCCCNC(=O)c1cccc(-c2cccnc2)c1)c1cccc(-c2cccnc2)c1
39 µM | 11 µM | Kd [2]: 39 µM | COc1cc(CC(=O)NCCCNC(=O)c2cn3c4c(c(N5CCN(C)CC5)c(F)cc4c2=O)OCC3C)cc(OC)c1OC (stereo not given)
985 µM | 286 µM |  | COc1cc(CC(=O)NCc2ccc(CNC(=O)c3cn4c5c(c(N6CCN(C)CC6)c(F)cc5c3=O)OCC4C)cc2)cc(OC)c1OC (stereo not given)
